In PubChem BioAssay (NCI):
Several values for one entry are separate records, joined by “and”; a condition that tells them apart may be missing. Identical values can stand only once.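 These data come from cells grown in 96-well plates and exposed to compound for 48 hours at five concentrations. GI50 = concentration required for 50% inhibition of growth. TGI marks complete inhibition of growth.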

Experiments:
Assay in all cases: NCI tumour cell line growth inhibition, 48 h
[1] = test system: ACHN renal
[2] = test system: HCT-116 colon
[3] = test system: HL-60(TB) leukemia
[4] = test system: K-562 leukemia
[5] = test system: KM12 colon
[6] = test system: NCI-H23 lung
[7] = test system: SF-268 CNS
[8] = test system: SF-539 CNS
[9] = test system: SNB-19 CNS
[10] = test system: U251 CNS

Row | Structure (SMILES) | GI50 [1] | TGI [1] | GI50 [2] | TGI [2] | GI50 [3] | TGI [3] | GI50 [4] | TGI [4] [µM] | GI50 [5] | TGI [5] | GI50 [6] | TGI [6] | GI50 [7] | TGI [7] | GI50 [8] | TGI [8] | GI50 [9] | TGI [9] | GI50 [10] | TGI [10] [µM]
1 | CS(=O)(=O)N1CCC(Nc2ncc(C(=O)c3c(F)cccc3F)c(N)n2)CC1 | 7.06 µM | > 25 µM | 6 µM | > 25 µM | 8.65 µM | > 25 µM | 20.4 µM | > 25 | 8.67 µM | > 25 µM | 8.6 µM | > 25 µM | > 17.9 µM | > 25 µM | 9.36 µM | > 25 µM | 6.45 µM | > 25 µM | 6.33 µM | > 25
2 | O=C(/C=C(/C=C/c1cccc2[nH]ccc12)OB(F)F)/C=C/c1cccc2[nH]ccc12 | 0.514 µM | 2.04 µM | 0.277 µM | 0.951 µM | 0.641 µM | 7.23 µM | 0.423 µM | > 100 | 0.949 µM | 2.54 µM | 0.838 µM | 3.92 µM | 1.13 µM | 3.98 µM | 2.16 µM | 5.86 µM | 1.44 µM | 4.16 µM | 0.469 µM | 1.83
3 | COc1ccc(C2=C(c3ccccc3)C(=O)N3CCCC3C2)cc1 (stereo not drawn) | 2.39 µM | > 100 µM | 0.0817 µM | > 100 µM | 0.493 µM | > 63.6 µM | 0.0893 µM | > 100 | 3.01 µM | > 100 µM | > 32.3 µM | > 100 µM | 26 µM | > 100 µM | 3.11 µM | 98.2 µM | 8.01 µM | > 100 µM | 0.336 µM | > 100
4 | Nc1c(C(=O)Nc2cccc(Cl)c2)sc2nc3c(cc12)C(O)CCC3 (stereo not drawn) | 1.04 µM | 23.4 µM | 0.44 µM | 19.1 µM | 0.234 µM | 0.821 µM | 0.207 µM | 22.9 | 0.397 µM | > 49.9 µM | 0.711 µM | > 100 µM | 0.754 µM | 39.1 µM | 0.275 µM | 0.965 µM | 4.35 µM | 99.4 µM | 0.379 µM | 13.6
5 | O=C(O)c1ccc(CSc2nc3ccccc3[nH]2)cc1 | > 100 µM | > 100 µM | > 100 µM | > 100 µM | > 100 µM | > 100 µM | > 100 µM | > 100 | > 100 µM | > 100 µM | > 100 µM | > 100 µM | > 100 µM | > 100 µM | > 100 µM | > 100 µM | > 100 µM | > 100 µM | > 100 µM | > 100
6 | COc1ccc(-c2nc3sccn3c2-c2ccnc(NCCNS(=O)(=O)c3ccc(C(F)(F)F)cc3)n2)cc1 | 2.58 µM | > 100 µM | 0.729 µM | 4.61 µM | 0.494 µM | > 100 µM | 0.411 µM | > 100 | 1.36 µM | 36.2 µM | 3.56 µM | 62.3 µM | 1.41 µM | 50.9 µM | 2.55 µM | 7.77 µM | 3.77 µM | > 100 µM | 4.45 µM | > 100
7 | CC(=O)[O-].CC(=O)[O-].O=C([CH-]C(=O)c1ccccc1)c1ccccc1.[Nd+3].[OH3+] | 31.3 µM | > 100 µM | 19.7 µM | > 100 µM | 7.85 µM | 31.8 µM | 7.26 µM | > 100 | 14 µM | > 100 µM | 18.7 µM | 57.7 µM | 16.8 µM | > 100 µM | 31.6 µM | 93.5 µM | 30.1 µM | > 100 µM | 16.7 µM | > 100
8 | COc1ccccc1CNCCCN1C(=O)c2ccc3c4c(ccc(c24)C1=O)C(=O)N(CCCNCCCCNCCCN)C3=O | 0.747 µM | 4.44 µM | 0.315 µM | 1.16 µM | 0.409 µM | 1.69 µM | 0.302 µM | 7.05 | 0.338 µM | 1.46 µM | 0.356 µM | 2.05 µM | 0.333 µM | 3.61 µM | 0.426 µM | 1.67 µM | 0.574 µM | 3.97 µM | 0.339 µM | 1.3
9 | CC[C@]12C=CCN3CC[C@]4(C(=C(C(=O)OC)C1)Nc1cc5c(cc14)[C@@H]1[C@H](O5)[C@@H](O)[C@@]4(CC)CC(C(=O)OC)=C5Nc6ccccc6[C@@]56CCN1[C@@H]46)[C@@H]32 | 0.189 µM and 0.275 µM | 2.86 µM and 1.79 µM | 0.216 µM and 0.341 µM | 2.59 µM and 1.65 µM | 0.134 µM and 0.269 µM | 9.05 µM and 1.91 µM | 0.129 µM and 0.276 µM | – | 0.76 µM and 0.471 µM | 8.41 µM and 5.92 µM | 0.577 µM and 0.316 µM | 4.51 µM and 1.46 µM | 1.15 µM and 1.2 µM | 19.7 µM and 54.5 µM | 0.15 µM and 0.339 µM | 3.74 µM and 7.05 µM | 0.644 µM and 0.592 µM | 25 µM and 42.1 µM | 0.467 µM and 0.318 µM | –
10 | CC(C)(C)N1CC1CNC(=O)C(=O)NCC1CN1C(C)(C)C (stereo not drawn) | – | 13.7 µM | – | 10.8 µM | – | 4.57 µM | – | 15 | – | 12.3 µM | – | 5.96 µM | – | 15.4 µM | – | 13.7 µM | – | > 25.5 µM | – | 7.29
11 | Nc1nc(N)c2cc(S(=O)(=O)c3ccc4ccccc4c3)ccc2n1 | – | > 100 µM | – | > 100 µM | – | > 100 µM | – | > 100 | – | > 100 µM | – | > 100 µM | – | > 58.9 µM | – | > 74.7 µM | – | 63.5 µM | – | 23.6
12 | CCN1C(=O)/C(=c2\sc3n(c2=O)C2C(NN=3)N(CC)C(=O)N2CC)c2ccccc21 (stereo not drawn) | 0.726 µM | > 47.9 µM | 0.463 µM | > 54.3 µM | 0.303 µM | 1.01 µM | 0.362 µM | > 100 | 0.469 µM | > 73.4 µM | 0.808 µM | 17.6 µM | 2.57 µM | > 100 µM | 0.271 µM | 0.937 µM | 0.75 µM | 63 µM | 0.577 µM | 30.1
